What was measured:
[1] = biological target: T1, type II 5-alpha-reductase (Homo sapiens, UniProt P31213); settings: Moore et al. 1995; cited from earlier work
T1 sequence (P31213 1-254): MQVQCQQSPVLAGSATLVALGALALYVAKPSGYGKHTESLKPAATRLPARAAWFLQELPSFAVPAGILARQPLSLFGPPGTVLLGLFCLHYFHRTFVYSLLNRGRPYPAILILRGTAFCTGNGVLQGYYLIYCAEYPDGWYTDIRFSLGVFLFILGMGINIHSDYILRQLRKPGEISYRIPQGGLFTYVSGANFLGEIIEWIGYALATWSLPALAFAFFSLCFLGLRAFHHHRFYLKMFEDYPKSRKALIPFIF

MMP-9 = experiment: Zymography for metalloproteinases in medium of PPS-treated cells (MMP-9); type: cell-based, human; settings: PPS 100 μg/μl daily for 5 days; densitometry
Description: (§1) Cells in medium containing 20% FBS were pipetted into 6-well plates and were left undisturbed for 24 hours. On day 0, fresh medium containing 20% serum, with and without PPS ([…]), was added PPS was added daily for 5 days. At day 4, the serum in the medium was reduced to 0.1% FBS so as to avoid interference with the assays. At the time of collection, the cellular supernatants were centrifuged to remove cellular debris. Cell layers from the same wells were used to determine cell number.
(§2) Briefly, medium was diluted with 0.1% FBS and 5× Laemmli buffer so that all samples corresponded to an identical cell number. Gelatinases (MMP-9 and MMP-2) in the medium were assayed using 10% zymogram gels (Novex, San Diego, Calif.). Following electrophoresis, the gels were washed for 1 hour in 2.5% SDS and incubated overnight in collagenase as described previously (Boyle et al., Urology 48: 398-405, 1996). The gels were stained with Coomassie Blue and air-dried. To check for non-specific bands, gels were incubated in 50 mM Tris buffer, with the addition of 25 mM EDTA. Quantitative densitometry was performed using NIH image 1.6. […] However MMP-9 increased 235.7+/−50.31 as compared to control cells (see FIG. 3) (p<001).

TIMP-2 = experiment: Reverse zymography for tissue inhibitors of metalloproteinases (TIMP-2); type: cell-based, human; settings: PPS-treated cells; barely detectable in the control medium
Description: (§3) Tissue inhibitors of metalloproteinases (TIMPS) in the supernatant and the cell layer were assessed by reverse zymography. Briefly, gels were prepared containing gelatinase A. Medium was diluted to normalize for cell number as described in Example 2. Gels were washed for 1 hour in 2.5% SDS following electrophoresis and incubated overnight at 37° C. Coomasie Blue staining and air drying was performed as described in Example 2. Densitometry was performed using NIH image 1.6 to quantitate the TIMPS activity.

[2] = patients treated for IC; Sand et al. 1997; cited from earlier work
TIMP-1 = experiment: Reverse zymography for tissue inhibitors of metalloproteinases (TIMP-1); type: cell-based, human; settings: PPS-treated cells; densitometry
Description: as §3

MMP-2 = experiment: Zymography for metalloproteinases in medium of PPS-treated cells (MMP-2); type: cell-based, human; settings: PPS 100 μg/μl daily for 5 days; densitometry
Description: as §1, §2

type IV collagen = experiment: Collagen analysis, type IV collagen immunoassay; type: cell-based, human; settings: PPS-treated vs untreated cells
Description: (§4) Another set of cells was plated as described in Example 2 and either treated with PPS or left untreated. The supernatant was centrifuged to remove cellular debris and transferred to a tube containing protease inhibitors (PMSF, NEM, EDTA) and frozen prior to assay.
Type IV collagen: The Assay was performed in a similar way, except the medium and standards were coated on the plate for 8 hours prior to blocking. The concentration of the antibody and the biotinylated goat anti-rabbit IgG was 1:2000. The SAAP was used at 1:1500.
(§5) Type I and type IV (Biodesign) collagen standards were diluted to a final concentration of 0.25-4 ng/well in 0.02 N acetic acid. The curves were linear (r=0.98).

type I collagen = experiment: Collagen analysis, type I collagen immunoassay; type: cell-based, human; settings: PPS-treated vs untreated cells
Description: as §4
Type I collagen: 100 μl of medium or human collagen type I standard were incubated for 24 hours in a 96 well plate (Nunc). After 3 washes with 0.05% Tween/PBS, the wells were blocked with 1% BSA/PBS for an additional 24 hours. Following 4 washes with 0.05% Tween/PBS, 50 μl of human collagen type I antibody (1:1000) (Biodesiga, Kennebunk, Me.) was applied for 90 minutes. The plate was washed again and biotin-labeled goat anti-rabbit IgG (1:1000, Sigma) was applied for 1 hour. The wells were washed 4 more times and incubated with streptavidin […] (SAAP) at a 1:2500 concentration. P-nitrophenyl phosphate (pNPP, Sigma) was used for color development according to the manufacturer's directions. The plate was read in a Titertek Mulitskan plate reader at 405 nm.
as §5

human prostate cells = experiment: Dose response / growth curves of prostatic smooth muscle cells in 20% FBS, cell counts by Coulter counter; type: cell-based
Description: Fragments from the nodular areas of prostatectomy specimens were obtained, cut into small pieces, and incubated in a collagenase solution (3 mg/ml) (Sigma Chemical Co., St. Louis, Mo.) overnight at 37° C. The following day, the digested fragments were resuspended in complete Waymouth's medium (Gibco) containing 20% fetal bovine serum (FBS), L-glutamine, penicillin (100 U/ml), streptomycin (100 μg/ml), and sodium bicarbonate. The digested fragments were then plated into 24-well plates (Nunc Nalge International, Naperville, Ill.) coated with human fibronectin (Collaborative Research). The fragments were left undisturbed in 95% […] and 5% CO2 until the first outgrowth was apparent (by day 7), at which time the cells appeared elongated and stellate and formed parallel arrays. The medium was changed twice a week until the cells reached confluence, at which time the cells were transferred into flasks. All experiments were performed on cells between passage 2 and 10, at which time the cells appeared to have a stable phenotype (i.e., monolayer growth with no morphological change and no hillock formation at confluence). Characterization was performed by staining for a smooth muscle cell actin (Sigma Chemical Co.) and F actin (Molecular Probes) in accordance with manufacturers' directions. All of the cells contained end to end actin filaments when stained with phalloidin. Such staining is characteristic of mesenchymal cells. Since the majority of the cells contained smooth muscle actin (see FIG. 1), the cells were considered to be smooth muscle cells
Dose response curves for the cells were generated by plating cells at 5,000 cells/well in 24-well plates (Nunc) in medium containing 20% FBS. After 36 hours, the medium was replaced with fresh 20% FBS containing medium and increasing concentrations of PPS (Elmiron®, Ivax Corp., Miami Fla.) were added. Cells were counted on days 1, 3 and 4 with a Coulter 7.1 cell counter (Coulter, Hialeah, Fla.). The addition of FBS stimulated cell proliferation. […] Cell number decreased 24 hours following treatment with PPS (10 or 100 μg/ml) (see FIG. 2). […]

Molecule	Decrease in DHT [1] [%]	Prostate specific antigen [1]	Prostate volume reductions [1] [%]	MMP-9 increase as compared to control cells (MMP-9)	TIMP-2 expression in the medium (TIMP-2)	Serious adverse effects (mainly gastrointestinal or alopecia) [2]	TIMP-1 levels increase as compared to control cells (TIMP-1)	MMP-2 levels, PPS-treated cells vs control cells (MMP-2)	Type IV collagen level (type IV collagen; cell layer)	Type IV collagen level (type IV collagen; medium)	Type I collagen level relative to untreated control (type I collagen; cell layer)	Type I collagen level relative to untreated control (type I collagen; medium)	Cell number (human prostate cells; 24 hours following treatment with PPS (10 or 100 μg/ml), 20% FBS)	Cell death, as assessed by trypan blue staining (human prostate cells; PPS 10 or 100 μg/ml)	Decrease in cell number (human prostate cells; day 4 of treatment with 100 μg/ml PPS) [fold]
CC(C)(C)NC(=O)[C@H]1CC[C@H]2[C@@H]3CC[C@H]4NC(=O)C=C[C@]4(C)[C@H]3CC[C@]12C [finasteride]	72	reduction	30	–	–	–	–	–	–	–	–	–	–	–	–
pentosan polysulfate [PPS]	–	–	–	235.7+/−50.31% of untreated control c	expressed at high levels	3.2 % of chronic users	203.5+/−50.31% of untreated control c	no significant differences	52.99%+/−7.556 % of controls	43.03%+/−4.029 % of controls	66.91%+/−25.42 % of controls	29.97%+/−3.692 % of controls	decreased	not associated with cell death	3

— patent US6828309B2, “Use of pentosan polysulfate to treat certain conditions of the prostate” (The United States of America as represented by the …, priority 2000, dated 2004)
